# System: IL-1β release from THP-1 cells
# Assay: IL-1β Release Assay (Alternate Method), THP-1 cells
# Assay type: cell-based, human
# Details: Homo sapiens; at 0.3 μM; THP-1 cells; read-out: IL-1β % inhibition
# In short: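 THP-1 cells differentiated 16 h with 100 ng/mL LPS plus 100 ng/mL IFN-γ, reprimed 2 h with 100 ng/mL LPS, pretreated 30 min with compound, then challenged 45 min with 250 uM BzATP (final). Supernatant IL-1β quantified by ELISA; percent inhibition from background-adjusted levels versus untreated cells.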
row,SMILES,inhibition at 0.3 µM [%]
1,O=C(NCC12CC3CC(CC(C3)C1)C2)c1ncnc2c1CCN(Cc1ccc(F)cc1F)C2 [Compound 137],50 to 75
2,"O=C(CC12CC3CC(CC(C3)C1)C2)Nc1ccnc2c1CCN(Cc1ccccc1)C2 [Compound 342, 2-Adamantan-1-yl-N-(7-benzyl-5,6,7,8-tetrahydro-[1,7]naphthyridin-4-yl)-acetamide]",0 to 25
3,"CC12CC3CC(C)(C1)CC(CC(=O)Nc1ncnc4c1CCN(Cc1ccccc1)C4)(C3)C2 [Compound 341, N-(7-Benzyl-5,6,7,8-tetrahydro-pyrido[3,4-d]pyrimidin-4-yl)-2-(3,5-dimethyl-adamantan-1-yl)-acetamide]",25 to 50
4,O=C(CC12CC3CC(CC(C3)C1)C2)Nc1ncnc2c1CCN(Cc1ccc3c(c1)OCCO3)C2 [Compound 46],> 75

# Same assay, conditions: at 0.3 μM; THP-1 cells
row,SMILES,IL-1β % inhibition
1,O=C(CC12CC3CC(CC(C3)C1)C2)Nc1ncnc2c1CCN(C(=O)CCc1ccccc1)C2 [Compound 248],+ (compound exhibited 0-25% inhibition at 0.3 μM)
2,CC(C)(C)CC(=O)N1CCc2c(ncnc2NC(=O)C(C)(C)C23CC4CC(CC(C4)C2)C3)C1 [Compound 367],+ (compound exhibited 0-25% inhibition at 0.3 μM)
3,O=C(CC12CC3CC(CC(C3)C1)C2)Nc1ncnc2c1CCN(Cc1ccc(OCCO)cc1)C2 [Compound 99],+ (compound exhibited 0-25% inhibition at 0.3 μM)
4,CC(C)(C(=O)Nc1ncnc2c1CCN(Cc1ccc3cc[nH]c3c1)C2)C12CC3CC(CC(C3)C1)C2 [Compound 351],+ (compound exhibited 0-25% inhibition at 0.3 μM)
5,Cc1cc(C(=O)N2CCc3c(ncnc3NC(=O)CC34CC5CC(CC(C5)C3)C4)C2)n(C(C)(C)C)n1 [Compound 300],+ (compound exhibited 0-25% inhibition at 0.3 μM)
6,CN(CCO)c1ccc(CN2CCc3c(ncnc3NC(=O)CC34CC5CC(CC(C5)C3)C4)C2)cc1 [Compound 89],+ (compound exhibited 0-25% inhibition at 0.3 μM)
7,Cc1cc(CN2CCc3c(ncnc3NC(=O)CC34CC5CC(CC(C5)C3)C4)C2)ccc1F [Compound 86],++ (compound exhibited 25-50% inhibition at 0.3 μM)
8,COc1cccc(S(=O)(=O)N2CCc3c(ncnc3NC(=O)CC34CC5CC(CC(C5)C3)C4)C2)c1 [Compound 162],+ (compound exhibited 0-25% inhibition at 0.3 μM)
9,O=C(CC12CC3CC(CC(C3)C1)C2)Nc1ncnc2c1CCN(C(=O)Cc1ccccc1Br)C2 [Compound 302],+++ (compound exhibited 50-75% inhibition at 0.3 μM)
10,CN1CCc2c(ncnc2NC(=O)CC23CC4CC(CC(C4)C2)C3)C1 [Compound 7],+ (compound exhibited 0-25% inhibition at 0.3 μM)
11,O=C(CC12CC3CC(CC(C3)C1)C2)Nc1ncnc2c1CCN(Cc1ccccc1F)C2 [Compound 28],++++ (compound exhibited 75% or greater inhibition at 0.3 μM)
12,O=C(CC12CC3CC(CC(C3)C1)C2)Nc1ncnc2c1CCN(C(=O)COc1ccccc1)C2 [Compound 249],+ (compound exhibited 0-25% inhibition at 0.3 μM)
13,O=C(CC1CCCCCC1)Nc1ncnc2c1CCN(CC1CCCC1)C2 [Compound 128],+ (compound exhibited 0-25% inhibition at 0.3 μM)
14,Cc1ccccc1CN1CCc2c(ncnc2C(=O)NCC23CC4CC(CC(C4)C2)C3)C1 [Compound 336],++++ (compound exhibited 75% or greater inhibition at 0.3 μM)
15,O=C(NCC1CCCCC1)c1ncnc2c1CCN(Cc1cccnc1)C2 [Compound 48],+ (compound exhibited 0-25% inhibition at 0.3 μM)
16,O=C(NCC1CCCCC1)c1ncnc2c1CCN(Cc1ccncc1)C2 [Compound 49],+ (compound exhibited 0-25% inhibition at 0.3 μM)
17,O=C(CC12CC3CC(CC(C3)C1)C2)Nc1ncnc2c1CCN(Cc1ccccc1OC(F)(F)F)C2 [Compound 76],+ (compound exhibited 0-25% inhibition at 0.3 μM)
18,COc1ccc(CC(=O)N2CCc3c(ncnc3NC(=O)CC34CC5CC(CC(C5)C3)C4)C2)cc1OC [Compound 254],+ (compound exhibited 0-25% inhibition at 0.3 μM)
19,O=C(CC12CC3CC(CC(C3)C1)C2)Nc1ncnc2c1CCN(Cc1ccc(C(F)(F)F)cc1F)C2 [Compound 110],+ (compound exhibited 0-25% inhibition at 0.3 μM)
20,O=C(CC12CC3CC(CC(C3)C1)C2)Nc1ncnc2c1CCN(Cc1ccc(F)c(C(F)(F)F)c1)C2 [Compound 106],+ (compound exhibited 0-25% inhibition at 0.3 μM)
21,O=C(CC12CC3CC(CC(C3)C1)C2)Nc1ncnc2c1CCN(C(=O)Cc1ccc(Cl)cc1)C2 [Compound 265],++ (compound exhibited 25-50% inhibition at 0.3 μM)
22,O=C(NCCc1ccccc1Cl)c1ncnc2c1CCN(Cc1ccccc1)C2 [Compound 1],+ (compound exhibited 0-25% inhibition at 0.3 μM)
23,CC(C)(C(=O)Nc1ncnc2c1CCN(S(=O)(=O)Cc1ccc(Cl)c(Cl)c1)C2)C12CC3CC(CC(C3)C1)C2 [Compound 356],+ (compound exhibited 0-25% inhibition at 0.3 μM)
24,Cc1cc(C)cc(S(=O)(=O)N2CCc3c(ncnc3NC(=O)CC34CC5CC(CC(C5)C3)C4)C2)c1 [Compound 217],+ (compound exhibited 0-25% inhibition at 0.3 μM)
25,COc1ccccc1CCC(=O)Nc1ncnc2c1CCN(Cc1ccccc1)C2 [Compound 24],+ (compound exhibited 0-25% inhibition at 0.3 μM)

# Same assay, conditions: at 0.3 μM; THP-1 cells, BzATP-stimulated
row,SMILES,IL-1β % inhibition
1,O=C(Nc1ncnc2c1CCN(S(=O)(=O)c1cc(Cl)ccc1F)C2)C12CC3CC(CC(C3)C1)C2 [Compound 539],++ (compound exhibited 25-50% inhibition at 0.3 μM)
2,O=C(Nc1ncnc2c1CCN(Cc1cc3c(cc1Cl)OCO3)C2)C12CC3CC(CC(C3)C1)C2 [Compound 599],+ (compound exhibited 0-25% inhibition at 0.3 μM)
3,O=C(Nc1ncnc2c1CCN(S(=O)(=O)c1ccc(OC(F)(F)F)cc1)C2)C12CC3CC(CC(C3)C1)C2 [Compound 493],++ (compound exhibited 25-50% inhibition at 0.3 μM)
4,O=C(Nc1ncnc2c1CCN(Cc1cccc3c1OCO3)C2)C12CC3CC(CC(C3)C1)C2 [Compound 596],+++ (compound exhibited 50-75% inhibition at 0.3 μM)
5,COc1cccc(CN2CCc3c(ncnc3NC(=O)C34CC5CC(CC(C5)C3)C4)C2)c1 [Compound 584],+ (compound exhibited 0-25% inhibition at 0.3 μM)
6,O=C(Nc1ncnc2c1CCN(Cc1ccc(Br)nc1)C2)C12CC3CC(CC(C3)C1)C2 [Compound 613],+ (compound exhibited 0-25% inhibition at 0.3 μM)
7,CC(CCN1CCc2c(ncnc2NC(=O)C23CC4CC(CC(C4)C2)C3)C1)CC(C)(C)C (stereo not shown) [Compound 552],++++ (compound exhibited 75% or greater inhibition at 0.3 μM)
8,O=C(Nc1ncnc2c1CCN(S(=O)(=O)c1ccc3oc(=O)ccc3c1)C2)C12CC3CC(CC(C3)C1)C2 [Compound 505],+ (compound exhibited 0-25% inhibition at 0.3 μM)
9,O=C(Nc1ncnc2c1CCN(Cc1ccc(C(F)(F)F)cc1)C2)C12CC3CC(CC(C3)C1)C2 [Compound 604],++++ (compound exhibited 75% or greater inhibition at 0.3 μM)
10,O=C(Nc1ncnc2c1CCN(Cc1cccc(F)c1)C2)C12CC3CC(CC(C3)C1)C2 [Compound 605],+ (compound exhibited 0-25% inhibition at 0.3 μM)
11,O=C(Nc1ncnc2c1CCN(Cc1ccc(OCc3ccc(F)cc3)cc1)C2)C12CC3CC(CC(C3)C1)C2 [Compound 622],++ (compound exhibited 25-50% inhibition at 0.3 μM)

# Reference: US7297700B2, “Bicycloheteroaryl compounds as P2X7 modulators and uses thereof” (Renovis, Inc., priority 2005, dated 2007)
